In PMC12067350, “Discovery of Thieno[3,2‑b]pyridine-5-carboxamide and 2,3-Difluorobenzamide Negative Allosteric Modulators of Metabotropic Glutamate Receptor Subtype 5” (ACS Medicinal Chemistry Letters, 2025):

How the values were obtained:
Format in all cases: in vitro ADME
[1] = Binding in brain homogenate from rat (equilibrium dialysis); settings: fraction unbound, rat brain homogenates
Procedure: (§1) Binding in plasma from rat and human.
(§2) Determination of compounds’ fraction unbound (f u) in plasma from rat and human was conducted in vitro via equilibrium dialysis using HTDialysis membrane plates. Dialysis membranes (four paired strips per HTD assay) were hydrated as described by the manufacturer and inserted into the HTD plate, which was assembled and prepared for sample addition by the dispensing of blank buffer (DPBS, 100 µL/well) into the ‘top half’ of each membrane-split well. Each compound was diluted into plasma from each species (5 µM final concentration), which was aliquoted in triplicate to the ‘bottom half’ of the prepared HTD plate wells. […] Supernatant (60 µL) from each well of the daughter plates was then transferred to the corresponding wells of new daughter plates (96-shallow-well, V bottom) containing water (Milli-Q, 60 µL/well), and the plates were sealed in preparation for LC-MS/MS analysis (see below). fu was calculated as (analyte to IS MS peak area ratio from Trans-buffer side) / (analyte to IS MS peak area ratio from Cis-plasma side). Mean values for each species were calculated from 3 replicates. […]
The diluted fraction unbound (f u2) in brain was calculated as (analyte to IS MS peak area ratio from Trans-buffer side) / (analyte to IS MS peak area ratio from Cis-brain homogenate side). […]
(§3) Mean values for each species were calculated from 3 replicates.

CYP2D6 = biological target: T1, CYP2D6 (Homo sapiens, UniProt P10635); experiment: Cytochrome P450 inhibition using human liver microsomes, CYP2D6; settings: read-out: CYP 450 IC50, 2D6
T1 construct: from tissue; host or cells: human liver microsomes
T1 sequence (P10635 whole entry): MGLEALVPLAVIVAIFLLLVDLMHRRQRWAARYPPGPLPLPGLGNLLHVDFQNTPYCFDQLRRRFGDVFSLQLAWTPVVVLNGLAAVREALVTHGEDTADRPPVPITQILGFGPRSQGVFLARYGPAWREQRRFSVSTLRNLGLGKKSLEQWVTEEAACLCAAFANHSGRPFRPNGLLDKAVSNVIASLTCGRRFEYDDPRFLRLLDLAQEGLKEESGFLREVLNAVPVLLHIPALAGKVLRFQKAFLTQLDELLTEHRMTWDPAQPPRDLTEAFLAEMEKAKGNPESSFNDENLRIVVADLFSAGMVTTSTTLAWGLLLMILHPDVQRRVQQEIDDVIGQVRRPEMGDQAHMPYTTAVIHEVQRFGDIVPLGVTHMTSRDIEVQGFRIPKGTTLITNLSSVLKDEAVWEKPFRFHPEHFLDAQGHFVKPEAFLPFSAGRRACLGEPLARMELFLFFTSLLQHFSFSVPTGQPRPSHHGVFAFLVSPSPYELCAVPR
Procedure: Cytochrome P450 inhibition using Liver Microsomes.
The ability of compounds to inhibit cytochrome P450s (CYPs) was tested using human liver microsomes and a cocktail of substrates specific for CYP1A2, 2C9, 2D6 and 3A4. Compounds were incubated at 37C in presence of human liver microsomes (0.1 mg/ml) at 30, 10, 3, 1, 0.3 and 0.1 µM. A cocktail of substrate was also added for each CYP tested: phenacetin (10 µM, CYP1A2), diclofenac (5 µM, CYP2C9), dextromethorphan (5 µM, CYP2D6) and midazolam (2 µM, CYP3A4). HLM were also incubated with the control inhibitor miconazole at 3, 1, 0.3, 0.1, 0.03 and 0.01 µM. […]
The concentrations of CYP-specific metabolites generated at the end of the reaction were quantified by mass spectrometry using standard curves for each metabolite: acetaminophen (CYP1A2), 4-hydroxydiclofenac (CYP2C9), dextrophan (CYP2D6) and 1-hydroxymidazolam (CYP3A4). A concentration response curve for each metabolite was generated and IC50s were calculated using Prism. The LC-MS/MS transitions for metabolite quantifications are as follows. […]
Prepared samples were injected (10 µL each) onto an AB Sciex Triple Quad 4500 mass spectrometer system with an Agilent 1260 Infinity II pump and autosampler. […] Quantitation of compounds was performed via AB Sciex Multiquant software using the raw analyte:IS peak area ratios. […]

[2] = Binding in plasma from rat (equilibrium dialysis); settings: fraction unbound
Procedure: as §1
as §2, with “wells. The HTD plate was sealed and incubated for 6 hours at 37 °C.” for “wells.”
as §3

| Rat f u,brain [1] | IC50 (CYP2D6) | rat f u,plasma [2] | SMILES |
| --- | --- | --- | --- |
| 0.009 | > 30 µM | 0.027 | Cc1csc(NC(=O)c2cc(O[C@@H]3CCOC3)c3sccc3n2)n1 [19aA] |
| 0.051 | > 30 µM | 0.040 | Cc1csc(NC(=O)c2cc(O[C@@H]3CCOC3)cc(F)c2F)n1 [27cA] |
